The values below come from patent publication US20210147932A1, “FLUORESCENT PROBES FOR QUANTIFICATION OF DNA DAMAGE AND REPAIR” (The Board of Trustees of the Leland Stanford Junior …, priority 2019, published 2021).

What all share (assay type): biochemical
Experiment [1] concerns the target T1, NTH1 (Homo sapiens, UniProt P78549).
T1 construct: purchased Novus biologics
T1 sequence (P78549 23-304): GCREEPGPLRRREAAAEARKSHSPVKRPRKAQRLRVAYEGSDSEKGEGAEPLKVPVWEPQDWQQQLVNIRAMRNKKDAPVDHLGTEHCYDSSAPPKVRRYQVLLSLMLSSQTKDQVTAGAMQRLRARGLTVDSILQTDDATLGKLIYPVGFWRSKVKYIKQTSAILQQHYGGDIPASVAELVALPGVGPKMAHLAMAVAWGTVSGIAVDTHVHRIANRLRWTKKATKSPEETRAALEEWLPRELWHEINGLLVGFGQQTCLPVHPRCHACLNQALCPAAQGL
The experiment in a line: NTH1 coupled assay with 5-hydroxycytosine DNA hairpin. The settings on record: NTH1 500 nM, 5hC DNA substrate 60 μM, CCVJ1 20 μM. The procedure: FIG. 15, panels A-G provides quantitative coupled assays using Compound (1) (CCJV1). Shown are data from reaction of lesion containing substrates with UNG and SMUG1 (5 nM) (panel A), MPG (100 nM) (panel B), NTH1 (500 nM) (panel C), OGG1 (100 nM) in real-time (panel D) with lesion containing DNA (2 μM) and CCVJ1 (20 μM) (panels A, B and D) or lesion containing DNA (60 μM) and CCVJ1 (20 μM) […]. […] Delay time tss of 25 minutes indicated with dotted line.
FIG. 16 provides time course of NTH1 (500 nM) with 5-hydroxycytosine containing DNA (60 μM) and Compound (1) (CCVJ1) (20 μM). […] Following a 10-minute incubation period, additional substrate was then added (20 μM) which yielded an increase in fluorescence.
Based on the results of our neighboring base effect study, several glycosylase oligonucleotide substrates were purchased or prepared in which the identity of the base lesion X was varied to correspond to the known activities of different target glycosylases (FIG. 15, panel E). For these studies human enzymes SMUG1/UNG, OGG1, MPG and NTH1, were chosen which represent a diverse array of human glycosylases. […] Assays were carried out in a 60 μL volume in a 384 well format on a microplate reader using a fluorescein filter set. For each enzyme, it was possible to observe a robust fluorescence signal (FIG. 15, panels A-D). […]

In experiment [2] the test system is AP-containing single-stranded DNA oligonucleotide (oligonucleotide 18). The experiment in a line: Reaction of probe with AP-containing single-stranded DNA. As for the experimental part:
FIG. 8 provides representative plot for the reaction of Compound (1) (CCVJ1) with single stranded DNA oligonucleotide 18.
Additional experiments were performed to study the origins of this unusually rapid reaction. […] To test the effect that proximity between the alkoxyamine and planar portion of the probe had on oxime kinetics in our probes, probes were synthesized having variable-length linkers (CCVJ2 and CCVJ3) from aldehyde reactive linkers L2 and L3 respectively (FIG. 2A). […] To test the importance of a double-stranded DNA structure to the rate and fluorescence response, an AP-containing single-stranded DNA oligonucleotide was reacted with CCVJ1. At pH 7, CCVJ1 reacted with a second-order rate constant of 33 M^−1s^−1 with the single-stranded substrate, roughly 5-fold slower than a double-stranded hairpin with identical sequence context (FIG. 8).

Experiment [3] concerns DNA AP site (AP site containing DNA, oligo 15). The experiment in a line: Fluorescence response of probe covalently attached to the AP site of a DNA hairpin. As for the experimental part:
FIG. 2B provides emission spectra of oligonucleotide-probe conjugates compared to the emission spectra of the free probe at 2 μM concentration in 50 mM Tris buffer pH 7.0. Excitation was at 470 nm for Compound (1) (also referred to herein as CCVJ1) and 450 nm for Compounds 8 and 9 (also referred to herein as NP1 and NP2) and Compounds 4 and 6 (also referred to herein as BD1 and BD2).
To assess the potential fluorescence response of each probe, a 17mer DNA hairpin containing a single AP site was prepared and reacted it with a 10-fold excess of probe overnight. The subsequent DNA-probe conjugates were precipitated to remove excess fluorophore and full DNA labelling was confirmed by MALDI-TOF mass spectrometry (Table 1). The reacted DNAs were re-suspended in buffer to a concentration of 2 μM and the emission spectra compared with the spectra of the free probes in solution. […] In addition to its large fluorescence response, CCVJ1 is accessed readily through a facile 4-step synthesis and has good spectral overlap with fluorescein. This makes the probe accessible to a wide range of researchers and well suited to the majority of fluorescence-based instruments.
In addition to the 5′ and 3′ neighboring bases, studies were done of the effect of the orphaned base Z paired opposite the abasic site on the UBER probe system (FIG. 10, panels C-D). Using the sequence where X=C and Y=G, the identity was varied of the base Z opposite the AP site. […] As a result, the smaller pyrimidine bases yielded a greater fluorescence light up response than the larger purine bases. It was also observed a strong effect by the opposing base on the rate of oxime formation (FIG. 10, panel D). […] This trend is in contrast to the neighboring base effect discussed above in which stronger stacking bases accelerated the rate of oxime formation.
General procedure for creating AP site DNA: A deoxyuridine containing oligonucleotide (typically 5-20 μM) was treated with 10 U/mL E. coli UDG (New England Biolabs) for 10 minutes at 37° C. in buffer to create AP site containing DNA (see below for MALDI-TOF confirmation). The hairpin was then reacted with probe from a DMSO stock solution (final DMSO concentration <5%).
Procedure for assessing fluorescence response of probes: To assess the fluorescence response of the probes, 25 μM AP site containing DNA (oligo 15) was prepared in a 20 μL solution and allowed to react with 500 μM of each probe overnight. The DNA was then precipitated by the addition of 80 μL 0.33 M sodium acetate and 300 μL ethanol and centrifuged at 21,100 g for 1 hr at 4° C. The resulting DNA pellet was washed twice with 70% EtOH and re-suspended in buffer to a concentration of 2 μM. A portion of the DNA pellet was used for MALDI-TOF analysis. The emission spectra of the probe-oligonucleotide conjugate was measured and compared against a 2 μM solution of the free probe

Turning to `N#C/C(=C\c1cc2c3c(c1)CCCN3CCC2)C(=O)NCCON` [CCVJ1], in experiment [1], the “overall fold change of fluorescence with NTH1” value was determined as 20 fold. The “increase in fluorescence on reaction with single-stranded DNA” value in experiment [2] was 4 fold. In experiment [2] (pH 7), the “rate with single-stranded substrate, slower than double-stranded hairpin of identical sequence context” value is listed as “roughly 5 fold” and the “second-order rate constant with single-stranded substrate” value was determined as 33 M⁻¹ s⁻¹. Moreover, the “increase in fluorescence when bound to the AP site vs free probe” value in experiment [3] (17mer hairpin conjugate 2 μM vs free probe) came to 256 fold. In experiment [3] (AP hairpin X=C, Y=G, Z=C), the “overall increase in fluorescence relative to the probe alone, optimal neighboring bases” value came to 508 fold. Besides, the “fluorescence light up response (summary)” value in experiment [3] (relative to the unbound probe) is reported as 250-500 fold.
